Laboratory results: BindingDB's records for doi:10.1111/cbdd.12280 (Universiti Kebangsaan Malaysia, Jalan Raja Muda Abdul Aziz, …, 2014)

Experiments:
[1] = molecular target: T1, Prostaglandin E synthase (Homo sapiens, UniProt O14684); assay: Microsomal prostaglandin E synthase-1 activity assay; settings: pH 7; 20 °C
T1 sequence (O14684 whole entry): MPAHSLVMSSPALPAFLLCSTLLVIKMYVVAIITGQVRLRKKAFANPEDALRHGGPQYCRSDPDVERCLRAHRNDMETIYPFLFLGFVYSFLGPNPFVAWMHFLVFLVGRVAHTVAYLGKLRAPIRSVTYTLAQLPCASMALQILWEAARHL
Experimental: The assay buffer contained 100 mM KHPO4 (pH 7.0), 2 mM EDTA and 2.5 mM reduced GSH. 100 µL of reaction buffer containing human recombinant mPGES-1 was added to 96-well non-binding plate, followed by the addition of test samples to their respective wells. The reaction mixture was incubated for 30 min at 20 °C. […] The reaction was quenched by adding 20 µL of SnCl2 solution in 1 N HCl.

[2] = molecular target: T2, Phospholipase A2 group V (Homo sapiens, UniProt P39877); assay: sPLA2-V activity assay; settings: pH 8; 25 °C
T2 sequence (P39877 whole entry): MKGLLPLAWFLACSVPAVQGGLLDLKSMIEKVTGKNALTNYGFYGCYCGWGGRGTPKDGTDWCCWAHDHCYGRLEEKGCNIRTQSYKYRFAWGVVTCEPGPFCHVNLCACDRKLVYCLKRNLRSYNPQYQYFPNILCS
Experimental: Substrate 1,2-bis(heptanoylthio)-glycerophosphocholine and human recombinant PLA2-V were resuspended in assay buffer, and DTNB was dissolved in an aqueous solution of Tris-HCl (pH 8).

[3] = molecular target: T3, Prostaglandin G/H synthase 1 (Ovis aries, UniProt P05979); assay: Cyclooxygenase activity assay; settings: pH 8; 37 °C
T3 sequence (P05979 whole entry): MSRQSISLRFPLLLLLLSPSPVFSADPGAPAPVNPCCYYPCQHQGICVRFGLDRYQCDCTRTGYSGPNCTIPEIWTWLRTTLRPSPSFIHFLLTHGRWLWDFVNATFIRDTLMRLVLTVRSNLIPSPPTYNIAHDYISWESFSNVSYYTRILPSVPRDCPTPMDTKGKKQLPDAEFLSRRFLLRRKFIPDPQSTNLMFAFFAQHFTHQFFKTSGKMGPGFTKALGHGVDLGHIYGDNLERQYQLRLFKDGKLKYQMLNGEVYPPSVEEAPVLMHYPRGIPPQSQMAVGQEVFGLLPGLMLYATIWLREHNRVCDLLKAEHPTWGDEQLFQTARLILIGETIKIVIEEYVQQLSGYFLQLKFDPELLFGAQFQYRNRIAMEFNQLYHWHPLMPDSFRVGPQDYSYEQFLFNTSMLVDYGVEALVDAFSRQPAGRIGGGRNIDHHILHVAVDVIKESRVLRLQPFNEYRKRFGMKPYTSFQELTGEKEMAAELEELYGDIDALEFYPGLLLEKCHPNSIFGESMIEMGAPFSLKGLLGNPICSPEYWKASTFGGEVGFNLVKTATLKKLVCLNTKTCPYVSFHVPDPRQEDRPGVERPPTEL
Experimental: (§1) Reaction mixture containing 100 mM Tris-HCl buffer (pH 8) and COX-1 (ovine) or COX-2 (human recombinant) was preincubated for 10 min in a water bath at 37 °C. The reaction was initiated by the addition of 10 µL arachidonic acid (final concentration 100 µM). After 2 min, the reaction was terminated by adding 1 M HCl. Test compounds were dissolved in DMSO and diluted to the desired concentration with potassium phosphate buffer of pH 7.4.

[4] = molecular target: T4, Lipoxygenase (Glycine max, UniProt Q43440); assay: Lipo-oxygenase activity assay; settings: pH 7; 25 °C
T4 sequence (Q43440 whole entry): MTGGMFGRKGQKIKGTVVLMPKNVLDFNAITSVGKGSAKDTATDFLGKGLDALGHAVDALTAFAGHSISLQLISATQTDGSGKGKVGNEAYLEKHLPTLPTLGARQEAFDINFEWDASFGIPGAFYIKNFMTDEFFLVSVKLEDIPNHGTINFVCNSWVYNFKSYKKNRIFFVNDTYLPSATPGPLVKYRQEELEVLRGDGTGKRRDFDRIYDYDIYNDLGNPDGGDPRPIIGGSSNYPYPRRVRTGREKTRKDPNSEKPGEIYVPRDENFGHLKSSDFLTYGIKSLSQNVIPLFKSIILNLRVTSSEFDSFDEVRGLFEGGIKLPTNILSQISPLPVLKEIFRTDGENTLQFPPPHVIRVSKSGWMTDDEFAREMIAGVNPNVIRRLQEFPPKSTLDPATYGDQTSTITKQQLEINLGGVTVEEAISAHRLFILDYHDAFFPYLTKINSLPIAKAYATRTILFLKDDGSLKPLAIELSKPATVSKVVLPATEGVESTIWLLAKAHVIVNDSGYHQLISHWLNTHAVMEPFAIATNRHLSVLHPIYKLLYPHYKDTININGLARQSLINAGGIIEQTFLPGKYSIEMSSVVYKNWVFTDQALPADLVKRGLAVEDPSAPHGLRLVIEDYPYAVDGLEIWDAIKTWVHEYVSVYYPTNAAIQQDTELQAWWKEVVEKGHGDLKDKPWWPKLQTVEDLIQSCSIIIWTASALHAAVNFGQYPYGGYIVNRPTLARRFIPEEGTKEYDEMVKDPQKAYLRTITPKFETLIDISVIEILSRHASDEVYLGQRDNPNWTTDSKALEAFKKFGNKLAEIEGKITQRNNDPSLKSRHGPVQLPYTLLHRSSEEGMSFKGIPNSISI
Experimental: The assay was progressed in 96-well microliter plates containing substrate, soybean LOX enzyme, and respective test substance at room temperature in a 0.1 M Tris-HCl buffer solution at pH 7. The reaction was initiated by the addition of substrate solution to all wells and incubated for 5 min, followed by the addition of 100 µL of chromogen solution to all wells to stop enzyme catalysis and incubated for 5 min. The absorbance was measured at 490 nm. Dimethyl sulphoxide served as a negative control.

[5] = molecular target: T5, Prostaglandin G/H synthase 2 (Homo sapiens, UniProt P35354); assay: Cyclooxygenase activity assay; settings: pH 8; 37 °C
T5 sequence (P35354 whole entry): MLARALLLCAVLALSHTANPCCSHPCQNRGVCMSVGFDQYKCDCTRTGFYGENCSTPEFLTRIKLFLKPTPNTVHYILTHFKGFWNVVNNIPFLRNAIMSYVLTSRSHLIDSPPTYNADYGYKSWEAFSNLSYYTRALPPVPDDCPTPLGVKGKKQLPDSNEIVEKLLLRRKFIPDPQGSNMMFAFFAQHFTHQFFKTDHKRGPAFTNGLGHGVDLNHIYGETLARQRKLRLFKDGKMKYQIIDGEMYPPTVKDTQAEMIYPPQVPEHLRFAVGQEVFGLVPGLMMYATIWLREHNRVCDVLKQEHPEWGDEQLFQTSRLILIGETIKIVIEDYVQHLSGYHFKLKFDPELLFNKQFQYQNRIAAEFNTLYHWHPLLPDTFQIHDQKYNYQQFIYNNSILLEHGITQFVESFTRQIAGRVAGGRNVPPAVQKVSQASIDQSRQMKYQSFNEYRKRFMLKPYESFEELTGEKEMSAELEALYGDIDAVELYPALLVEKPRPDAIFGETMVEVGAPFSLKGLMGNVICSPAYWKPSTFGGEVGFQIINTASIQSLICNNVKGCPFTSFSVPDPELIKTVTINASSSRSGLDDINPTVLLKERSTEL
Experimental: as §1

| IC50 [1] [µM] | IC50 [2] [µM] | IC50 [3] [µM] | IC50 [4] [µM] | IC50 [5] [µM] | Compound |
| --- | --- | --- | --- | --- | --- |
| 37 | 51.9 | 53.2 | – | – | CC(C)(C)c1ccc(/C=C/C(=O)/C=C/c2ccc(C(C)(C)C)cc2)cc1 |
| 5.48 | 10.2 | 32 | 56.8 | – | CCN(CC)c1ccc(/C=C2\CC/C(=C\c3ccc(N(CC)CC)cc3)C2=O)cc1 [2,5-Bis(4-diethylaminobenzylidene)cyclopentanone (17)] |
| 7.34 | 11 | 33.3 | 47.8 | 53.2 | COc1cccc(/C=C2\CCC/C(=C\c3cccc(OC)c3OC)C2=O)c1OC [2,6-Bis(2,3-dimethoxybenzylidene)cyclohexanone (3)] |
| 2.41 | 12.1 | 38.5 | – | – | CCN(CC)c1ccc(/C=C2\CCC/C(=C\c3ccc(N(CC)CC)cc3)C2=O)cc1 [2,6-Bis(4-diethyl-aminobenzylidene)cyclohexanone (5)] |
| 6.98 | 16.1 | 37.7 | 95.1 | 94.9 | CCN(CC)c1ccc(/C=C/C(=O)/C=C/c2ccc(N(CC)CC)cc2)cc1 [(1E,4E)‐1,5‐bis[4‐(diethylamino)phenyl]penta‐1,4‐ dien‐3‐one (11)] |
| 14.8 | 10.4 | 41.5 | 62.9 | 70.7 | COc1cccc(/C=C/C(=O)/C=C/c2cccc(OC)c2OC)c1OC [(1Z,4Z)–1-5-Bis[2,3(dimethoxy)phenyl]-1,4-pentadien-3-one (9)] |
| 7.48 | – | 320 | – | – | CC(C=C1CCC(=CC(C)c2ccccc2)C1=O)c1ccccc1 (stereo not drawn) [(2E,5E)‐2,5‐bis(2‐phenylpropylidene)cyclopentan‐1‐ one (16)] |
| 10.4 | 16.4 | 40.2 | 63.8 | – | COc1cccc(/C=C2\CC/C(=C\c3cccc(OC)c3OC)C2=O)c1OC [(2E,5E)‐2,5‐bis[(2,3‐ dimethoxyphenyl)methylidene]cyclopentan‐1‐one (15)] |
| 24.5 | 83.2 | 60 | – | – | CC(C)(C)c1ccc(/C=C2\CC/C(=C\c3ccc(C(C)(C)C)cc3)C2=O)cc1 [(2E,5E)‐2,5‐bis[(4‐tert‐butyl‐2‐ methylphenyl)methylidene]cyclopentan‐1‐one (14)] |
| 20.3 | 94.7 | 194 | – | – | CC(C=C1CCCC(=CC(C)c2ccccc2)C1=O)c1ccccc1 (stereo not drawn) [(2E,6E)‐2,6‐bis(2‐phenylpropylidene)cyclohexan‐1‐ one (4)] |
| 8.95 | 53.3 | 43.2 | – | – | CC(C)(C)c1ccc(/C=C2\CCC/C(=C\c3ccc(C(C)(C)C)cc3)C2=O)cc1 [(2E,6E)‐2,6‐bis[(4‐tert‐ butylphenyl)methylidene]cyclohexan‐1‐one (2)] |
| 60.7 | 125 | 195 | – | – | CC(C=CC(=O)C=CC(C)c1ccccc1)c1ccccc1 (stereo not drawn) [(3E,6E)‐2,8‐diphenylnona‐3,6‐dien‐5‐one (10)] |
| – | – | – | 9.23 | – | CC(Cc1ccc(O)c(O)c1)C(C)Cc1ccc(O)c(O)c1 (stereo not drawn) [LOX inhibitor, N/A] |
| – | 0.61 | – | – | – | C[C@@H]1C[C@H]2[C@@H]3CCC4=CC(=O)C=C[C@]4(C)[C@@]3(F)[C@@H](O)C[C@]2(C)[C@@]1(O)C(=O)CO [dexamethasone (tetramethyl-rhodamine conjugated )] |

| Compound | IC50 [1] [µM] | IC50 [2] [µM] | IC50 [3] [µM] | IC50 [4] [µM] | IC50 [5] [µM] |
| --- | --- | --- | --- | --- | --- |
| COc1cc(C=CC(=O)CC(=O)C=Cc2ccc(O)c(OC)c2)ccc1O [(1E,6E)-1,7-bis(4-hydroxy-3-methoxyphenyl)hepta-1,6-diene-3,5-dione] | 4.88 | – | 31.3 | 57.8 | – |
